Experimental data from patent US20230295133A1, “PROCESS FOR PREPARING A COMPOUND USEFUL TO TREAT MYCOSES” (PULMOCIDE LIMITED, priority 2014, published 2023).
≈ marks a conversion by molar mass, not a printed value.

Assays:
[1] = test system: aspergillus fumigatus infection of BEAS2B cells; assay: Aspergillus fumigatus infection of bronchial epithelial cells (GM in supernatant); format: cell-based; conditions: bronchial epithelial cells infected with Aspergillus fumigatus; read-out: MIC50 Infection of BEAS2B cells
Description: BEAS2B cells were seeded in 96-well plates (100 µL; 30,000 cells / well; Catalogue No 3596, Sigma Aldrich, Dorset, UK) in 10% FBS RPMI-1640 and were then incubated (37° C., 5% CO2) for one day before experimentation. Test compounds (0.5 µL DMSO solution) or vehicle (DMSO) were added to each well to give a final DMSO concentration of 0.5%. BEAS2B cells were incubated with test compounds for 1 hr (35° C., 5% CO2) before infection with aspergillus fumigatus (20 µL; Public Health England) conidia suspension (0.5×10^5 /ml in 10% FBS RPMI-1640). The plate was incubated for 24 hr (35° C., 5% CO2). Supernatant (50 µL) was collected and transferred to a PCR plate (Catalogue No L1402-9700, Starlab, Milton Keynes, UK), which was frozen (-20° C.) until use. After thawing, supernatant (5 µL) was diluted 1:20 by adding R7-PBS solution (95 µL; 1:4 R7 to PBS; Bio-Rad Laboratories, Redmond, WA, USA). GM levels in these samples (50 µL) were measured using Platelia GM-EIA kits (Bio-Rad Laboratories, Redmond, WA, USA). The percentage inhibition for each well was calculated and the IC50 value was calculated from the concentration-response curve generated for each test compound.

[2] = Cell viability: resazurin assay; format: cell-based, human; conditions: human, BEAS2B cells; n = 3-5
Description: BEAS2B cells were seeded in 384-well plates (100 µL; 3000 / well /; BD Falcon, Catalogue No 353962) in RPMI-LHC8 (RPMI-1640 and LHC8 media combined in equal proportions) one day before experimentation. For cell-free control wells, RPMI-LHC8 (100 µL) was added. Test compounds (0.5 µL of a DMSO solution) were added to give a final DMSO concentration of 0.5% using an Integra VIAFLO 96 (Integra, Zizers, Switzerland). BEAS2B cells were incubated with each test compound for 1 day (37° C. / 5% CO2 in RPMI-LHC8). After addition of resazurin stock solution (5 µL, 0.04%) the plates were incubated for a further 4 hr (37° C. / 5% CO2). The fluorescence of each well at 545 nm (excitation) and 590 nm (emission) was determined using a multi-scanner (Clariostar: BMG Labtech). The percentage loss of cell viability was calculated for each well relative to vehicle (0.5% DMSO) treatment. Where appropriate, a CC50 value was calculated from the concentration-response curve generated from the concentration-response curve for each test compound.

[3] = test system: Aspergillus fumigatus L98H (TR34/L98H); assay: Broth microdilution assay (modified EUCAST); format: cell-based; conditions: Aspergillus fumigatus, read-out: MIC75 against Aspergillus fumigatus isolate L98H
Description: (§1) This assay was conducted using a modified method published by EUCAST (Rodriguez-Tudela et al., 2008). Spores of aspergillus fumigatus (NCPF2010, NCPF7010 (Methionine 220 mutation), NCPF7099 (Glycine G54 mutation) from Public Health England, Wiltshire; TR34/L98H mutants from St Louis Hospital, Paris, France) were cultured in Sabouraud dextrose agar for 3 days. A stock spore suspension was prepared from a Sabouraud dextrose agar culture by washing with PBS-tween (10 mL; PBS containing 0.05% Tween-20, 100 U/mL Penicillin and 100 U/mL Streptomycin). The spore count was assessed using a Neubauer haemocytometer and then adjusted to 10^6 spores/mL with PBS. A working suspension of spores (2 × 10^5 spores/mL) was prepared in filter sterilised, BSA MOPS RPMI-1640 (50 mL; RPMI-1640 containing 2 mM L-glutamine, 0.5% BSA, 2% glucose, 0.165 M MOPS, buffered to pH 7 with NaOH). For the assay, BSA MOPS RPMI-1640 (50 µL/well) was added throughout the 384-well plate (Catalogue number 353962, BD Falcon, Oxford, UK) first. Test compounds (0.5 µL DMSO solution) were then added in quadruplicate using an Integra VIAFLO 96 (Integra, Zizers, Switzerland), and mixed well using a plate mixer. Subsequently 50 µL of the working spore suspension prepared above was added to all wells except non-spore control wells. For non-spore control wells, BSA MOPS-RPMI solution (50 µL/well) was added instead. The plate was covered with a plastic lid, and incubated (35° C. with ambient air) for 48 hr. The OD of each well at 530 nm was determined using a multi-scanner (Clariostar: BMG, Buckinghamshire, UK). The percentage inhibition for each well was calculated and the MIC50, MIC75 and MIC90 values were calculated from the concentration-response curve generated for each test compound.

[4] = test system: Aspergillus fumigatus NCPF2010; assay: Broth microdilution assay (modified EUCAST); format: cell-based; conditions: Aspergillus fumigatus, NCPF2010, read-out: MIC75 against Aspergillus fumigatus isolate NCPF2010
Description: as §1

[5] = test system: Aspergillus fumigatus NCPF7099; assay: Broth microdilution assay (modified EUCAST); format: cell-based; conditions: Aspergillus fumigatus, NCPF7099, n = 3, read-out: MIC75 against Aspergillus fumigatus isolate NCPF7099
Description: as §1

[6] = test system: Aspergillus fumigatus NCPF7100; assay: Broth microdilution assay (modified EUCAST); format: cell-based; conditions: Aspergillus fumigatus, NCPF7100, read-out: MIC75 against Aspergillus fumigatus isolate NCPF7100

| Structure (SMILES) | MIC50 [1] | CC50 at 1 day [2] | MIC [3] | MIC [4] | MIC [5] | MIC [6] |
| --- | --- | --- | --- | --- | --- | --- |
| Cc1cc(N2CCN(c3ccc(C(=O)Nc4ccc(Cl)cc4F)cc3)CC2)ccc1OC[C@@H]1CO[C@@](Cn2cncn2)(c2ccc(F)cc2F)C1 [Example 29, 4-(4-(4-(((3R, 5R)-5-((1H-1,2,4-triazol-1-yl)methyl)-5-(2,4-difluorophenyl)tetrahydrofuran-3-yl)methoxy)-3-methylphenyl)piperazin-1-yl)-N-(4-chloro-2-fluorophenyl)benzamide] | 0.0145 µM (≈ 0.0104 µg/mL) | > 13.9 µM | 0.12 µM (≈ 0.0861 µg/mL) | 0.0285 µM (≈ 0.0204 µg/mL) | 0.037 µM (≈ 0.0265 µg/mL) | 0.0538 µM (≈ 0.0386 µg/mL) |
| Cc1cc(N2CCN(c3ccc(C(=O)Nc4ccc(Cl)c(F)c4)cc3)CC2)ccc1OC[C@@H]1CO[C@@](Cn2cncn2)(c2ccc(F)cc2F)C1 [Example 30, 4-(4-(4-(((3R, 5R)-5-((1H-1,2,4-triazol-1-yl)methyl)-5-(2,4-difluorophenyl)tetrahydrofuran-3-yl)methoxy)-3-methylphenyl)piperazin-1-yl)-N-(4-chloro-3-fluorophenyl)benzamide] | 1.05 µM (≈ 0.753 µg/mL) | > 13.9 µM | 0.191 µM (≈ 0.137 µg/mL) | 0.0584 µM (≈ 0.0419 µg/mL) | 0.0347 µM (≈ 0.0249 µg/mL) | 0.0413 µM (≈ 0.0296 µg/mL) |
| Cc1cc(N2CCN(c3ccc(C(=O)Nc4c(F)cc(F)cc4F)cc3)CC2)ccc1OC[C@@H]1CO[C@@](Cn2cncn2)(c2ccc(F)cc2F)C1 [Example 31, 4-(4-(4-(((3R, 5R)-5-((1H-1,2,4-triazol-1-yl)methyl)-5-(2,4-difluorophenyl)tetrahydrofuran-3-yl)methoxy)3-methylphenyl)piperazin-1-yl)-N-(2,4,6-trifluorophenyl)benzamide] | 0.0107 µM (≈ 0.00769 µg/mL) | > 13.9 µM | 0.163 µM (≈ 0.117 µg/mL) | 0.0439 µM (≈ 0.0316 µg/mL) | 0.0109 µM (≈ 0.00783 µg/mL) | 0.0679 µM (≈ 0.0488 µg/mL) |
| Cc1cc(N2CCN(c3ccc(C(=O)Nc4ccc(F)cc4)cc3C)CC2)ccc1OC[C@@H]1CO[C@@](Cn2cncn2)(c2ccc(F)cc2F)C1 [Example 32, 4-(4-(4-(((3R,5R)-5-((1H-1,2,4-triazol-1-yl)methyl)-5-(2,4-difluorophenyl)tetrahydrofuran-3-yl)methoxy)-3-methylphenyl)piperazin-1-yl)-N-(4-fluorophenyl)-3-methylbenzamide] | 0.0261 µM (≈ 0.0182 µg/mL) | > 14.4 µM | 0.0695 µM (≈ 0.0484 µg/mL) | 0.0697 µM (≈ 0.0486 µg/mL) | 0.0481 µM (≈ 0.0335 µg/mL) | 0.0609 µM (≈ 0.0424 µg/mL) |
| Cc1cc(N2CCN(c3ccc(C(=O)Nc4ccc(F)cc4)c(C)c3)CC2)ccc1OC[C@@H]1CO[C@@](Cn2cncn2)(c2ccc(F)cc2F)C1 [Example 33, 4-(4-(4-(((3R, 5R)-5-((1H-1,2,4-triazol-1-yl)methyl)-5-(2,4-difluorophenyl)tetrahydrofuran-3-yl)methoxy)-3-methylphenyl)piperazin-1-yl)-N-(4-fluorophenyl)-2-methylbenzamide] | 0.0435 µM (≈ 0.0303 µg/mL) | > 14.4 µM | 0.0679 µM (≈ 0.0473 µg/mL) | 0.0135 µM (≈ 0.00941 µg/mL) | 0.0489 µM (≈ 0.0341 µg/mL) | 0.0236 µM (≈ 0.0164 µg/mL) |
| COc1cc(C(=O)Nc2ccc(F)cc2)ccc1N1CCN(c2ccc(OC[C@@H]3CO[C@@](Cn4cncn4)(c4ccc(F)cc4F)C3)c(C)c2)CC1 [Example 34, 4-(4-(4-(((3R, 5R)-5-((1H-1,2,4-triazol-1-yl)methyl)-5-(2,4-difluorophenyl)tetrahydrofuran-3-yl)methoxy)3-methylphenyl)piperazin-1-yl)-N-(4-fluorophenyl)-3-methoxybenzamide] | 0.0219 µM (≈ 0.0156 µg/mL) | > 14 µM | 0.0739 µM (≈ 0.0527 µg/mL) | 0.0446 µM (≈ 0.0318 µg/mL) | 0.029 µM (≈ 0.0207 µg/mL) | 0.0148 µM (≈ 0.0105 µg/mL) |
| COc1cc(N2CCN(c3ccc(OC[C@@H]4CO[C@@](Cn5cncn5)(c5ccc(F)cc5F)C4)c(C)c3)CC2)ccc1C(=O)Nc1ccc(F)cc1 [Example 35, 4-(4-(4-(((3R,5R)-5-((1H-1,2,4-triazol-1-yl)methyl)-5-(2,4-difluorophenyl)tetrahydrofuran-3-yl)methoxy)-3-methylphenyl)piperazin-1-yl)-N-(4-fluorophenyl)-2-methoxybenzamide] | 0.125 µM (≈ 0.0891 µg/mL) | > 14 µM | 0.178 µM (≈ 0.127 µg/mL) | 0.0634 µM (≈ 0.0452 µg/mL) | 0.109 µM (≈ 0.0777 µg/mL) | 0.111 µM (≈ 0.0791 µg/mL) |
| Cc1cc(N2CCN(c3ccc(C(=O)Nc4cccc(C#N)n4)cc3)CC2)ccc1OC[C@@H]1CO[C@@](Cn2cncn2)(c2ccc(F)cc2F)C1 [Example 36, 4-(4-(4-(((3R, 5R)-5-((1H-1,2,4-triazol-1-yl)methyl)-5-(2,4-difluorophenyl)tetrahydrofuran-3-yl)methoxy)3-methylphenyl)piperazin-1-yl)-N-(6-cyanopyridin-2-yl)benzamide] | 0.00352 µM (≈ 0.00243 µg/mL) | > 14.5 µM | 0.134 µM (≈ 0.0926 µg/mL) | 0.041 µM (≈ 0.0283 µg/mL) | 0.0445 µM (≈ 0.0307 µg/mL) | 0.0346 µM (≈ 0.0239 µg/mL) |
| Cc1cc(N2CCN(c3ccc(C(=O)Nc4cc(C#N)ccn4)cc3)CC2)ccc1OC[C@@H]1CO[C@@](Cn2cncn2)(c2ccc(F)cc2F)C1 [Example 37, 4-(4-(4-(((3R,5R)-5-((1H-1,2,4-triazol-1-yl)methyl)-5-(2,4-difluorophenyl)tetrahydrofuran-3-yl)methoxy)-3-methylphenyl)piperazin-1-yl)-N-(4-cyanopyridin-2-yl)benzamide] | 0.0188 µM (≈ 0.013 µg/mL) | > 14.5 µM | 0.194 µM (≈ 0.134 µg/mL) | 0.0284 µM (≈ 0.0196 µg/mL) | 0.0246 µM (≈ 0.017 µg/mL) | 0.022 µM (≈ 0.0152 µg/mL) |
| N#Cc1ccc(NC(=O)c2ccc(N3CCN(c4ccc(OC[C@@H]5CO[C@@](Cn6cncn6)(c6ccc(F)cc6F)C5)c(CO)c4)CC3)cc2)nc1 [Example 38, 4-(4-(4-(((3R, 5R)-5-((1H-1,2,4-triazol-1-yl)methyl)-5-(2,4-difluorophenyl)tetrahydrofuran-3-yl)methoxy)-3-hydroxymethylphenyl)piperazin-1-yl)-N-(5-cyanopyridin-2-yl)benzamide] | 0.00486 µM (≈ 0.00343 µg/mL) | > 14.1 µM | 0.0654 µM (≈ 0.0462 µg/mL) | 0.0124 µM (≈ 0.00876 µg/mL) | 0.0319 µM (≈ 0.0225 µg/mL) | 0.0336 µM (≈ 0.0237 µg/mL) |
